Laboratory results reported in US20240043382A1, “MODIFIED INDOLE ALKALOIDS FOR THERAPEUTIC USES” (priority 2020, published 2024).

Experiments:
[1] = Digestion of modified indole alkaloids with human salivary samples (LC-MS); format: in vitro ADME; conditions: 100 μM compound, 50 μL human saliva, 2 hours at 37° C., pH 7.5
Method: Human saliva samples were collected 25 minutes before food intake after 8 hours fasting from an adult subject with no clinical symptoms. For saliva collection, saliva samples were obtained by passive drool into sterile 10 mL centrifuge tubes over a 5-min period. Immediately after collection, saliva samples were centrifuged (500 g for 10 min at 4° C.) and the supernatant was recovered and used immediately or stored at −80° C. until further use.
Eleven 100-μL reaction mixtures were prepared, consisting of: • 50 mM HEPES pH 7.5 • 50 mM NaCl • 100 μM modified indole alkaloid product (from Reactions 3, 24, 39-47, respectively) • 50 μL, of human saliva sample • 2 mM calcium chloride • 5 mM magnesium chloride
The reaction mixtures were digested for 2 hours at 37° C., and heated to 80° C. for 5 minutes to terminate the reactions. The reaction mixtures were then centrifuged at 30,000 ref and the supernatant transferred to a fresh sample tube.
One microliter of the sample was injected onto a ZORBAX StableBond-C18, 1.8 um, 2.1×50 mm column at 20° C. using a 0.3 mL/min flow rate and major ion species were detected with a 6520 Accurate-Mass Q-TOF LC-MS (Agilent) in positive mode. The mobile phase consisted of a mixture of 0.1% formic acid in acetonitrile (v/v) and 0.1% formic acid in water (v/v) was eluted under the following gradient conditions (shown in relation to acetonitrile content): 0 min-10%, 6 min-100%, 7 min-10%, 14 min-10%. The mobile phase was delivered at a flow rate of 0.3 mL/min and the total analytical run time was 14 min.

[2] = target: T1, human 5-HT2A (h5-HT2A) receptor (Homo sapiens, UniProt P28223); assay: 5-HT2A receptor functional assay (calcium flux) of modified indole alkaloids digested with calf intestinal alkaline phosphatase; format: cell-based; conditions: after 2 hours with 100 units calf intestinal alkaline phosphatase, pH 7.9, 25° C.; compared to 5-HT
T1 construct: host or cells: Flp-In T-REx 293 cells
Method: 1 mM of 4-3-(2-(dipropylamino)ethyl)-1H-indol-4-yl dihydrogen phosphate (Compound A) was incubated with 100 units of calf intestinal alkaline phosphatase for 2 hours in buffer containing 50 mM Potassium acetate, 20 mM Tris-acetate, 10 mM Magnesium acetate, and 100 μg/ml BSA at pH 7.9 and 25° C. 1 mM of 4-3-(2-(diisopropylamino)ethyl)-1H-indol-4-yl dihydrogen phosphate (Compound B) was incubated with 100 units of calf intestinal alkaline phosphatase for 2 hours in buffer containing 50 mM Potassium acetate, 20 mM Tris-acetate, 10 mM Magnesium acetate, and 100 μg/ml BSA at pH 7.9 and 25° C. The resulting solutions containing dephosphorylated products were used in a 5-HT2A receptor functional assay. […]
Before the experiment, plates were allowed to equilibrate to room temperature, and calcium flux was measured using a […] cellular screening system (Molecular Devices, Sunnyvale, CA). Plates were read for fluorescence initially for 10 s (1 read per second) to establish a baseline and then stimulated with drug dilutions or buffer and read for an additional 120 s. Peak fluorescence in each well was normalized to the maximum fold increase over baseline. […] Data were analyzed using the sigmoidal dose-response function of Prism 5.0 or 8.0 (GraphPad Software, San Diego, CA). Relative activity (RA) was expressed as the logarithm of the ratio of Emax over EC50 parameter estimates. […]

[3] = target: T2, human 5-HT2C (h5-HT2C) receptor (Homo sapiens, UniProt P28335); assay: 5-HT2C receptor functional assay (Gq-mediated calcium flux) of saliva-hydrolyzed modified indole alkaloids; format: cell-based; conditions: 5HT2C agonist activity, compounds hydrolyzed by treatment with human saliva; for EC50: Flp-In T-REx 293 cells expressing h5-HT2C, peak calcium flux; for Emax % 5-HT (± SEM): normalized to 5-HT (100%)
T2 construct: host or cells: Flp-In T-REx 293 cells
T2 sequence (P28335 33-458): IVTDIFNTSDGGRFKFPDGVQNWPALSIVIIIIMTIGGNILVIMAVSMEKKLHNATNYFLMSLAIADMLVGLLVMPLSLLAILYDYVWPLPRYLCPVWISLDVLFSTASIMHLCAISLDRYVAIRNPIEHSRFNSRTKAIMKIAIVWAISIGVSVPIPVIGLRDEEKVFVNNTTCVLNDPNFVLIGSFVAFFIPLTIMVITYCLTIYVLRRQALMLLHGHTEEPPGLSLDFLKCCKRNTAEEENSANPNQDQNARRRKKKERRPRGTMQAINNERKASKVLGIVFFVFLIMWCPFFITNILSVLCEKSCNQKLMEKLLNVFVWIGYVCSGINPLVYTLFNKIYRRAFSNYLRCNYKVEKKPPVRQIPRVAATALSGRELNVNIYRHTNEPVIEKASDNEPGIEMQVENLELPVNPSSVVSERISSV

[4] = target: T1, human 5-HT2A (h5-HT2A) receptor; assay: 5-HT2A receptor functional assay (Gq-mediated calcium flux) of saliva-hydrolyzed modified indole alkaloids; format: cell-based; conditions: 5HT2A agonist activity, compounds hydrolyzed by treatment with human saliva; for EC50: Flp-In T-REx 293 cells expressing h5-HT2A, peak calcium flux; for Emax % 5-HT (± SEM): normalized to 5-HT (100%)

T1 sequence (P28223 whole entry): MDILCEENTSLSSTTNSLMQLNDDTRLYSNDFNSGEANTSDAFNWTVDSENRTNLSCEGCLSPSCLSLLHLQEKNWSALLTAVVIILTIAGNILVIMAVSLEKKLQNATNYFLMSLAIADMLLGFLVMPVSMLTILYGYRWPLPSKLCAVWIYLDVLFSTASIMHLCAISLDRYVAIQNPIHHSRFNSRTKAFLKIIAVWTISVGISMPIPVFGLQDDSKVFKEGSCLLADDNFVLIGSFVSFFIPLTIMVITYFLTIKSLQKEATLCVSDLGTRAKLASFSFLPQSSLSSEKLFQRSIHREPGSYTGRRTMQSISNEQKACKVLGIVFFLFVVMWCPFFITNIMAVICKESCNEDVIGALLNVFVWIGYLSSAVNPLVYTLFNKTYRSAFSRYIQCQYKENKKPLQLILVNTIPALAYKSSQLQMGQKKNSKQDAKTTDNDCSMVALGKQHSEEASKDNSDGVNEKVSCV

Q: Which “conversion by human saliva to 4-hydroxy-N,N-diisopropyltryptamine (LC-MS)” value (“conversion by human saliva” below) [1] does the source give for `CC(C)N(CCc1c[nH]c2cccc(O[C@H]3O[C@H](CO)[C@@H](O)[C@H](O)[C@H]3O)c12)C(C)C` [Hydrolyzed Compound A-7, 2-((3-(2-(diisopropylamino)ethyl)-1H-indol-4-yl)oxy)-6-(hydroxymethyl)tetrahydro-2H-pyran-3,4,5-triol] here?
A: completely deglycosylated

Q: Which “functional agonism of 5HT2A receptor, peak calcium flux response (FIG. 5)” value [2] does the source give for `CC(C)N(CCc1c[nH]c2cccc(OP(=O)(O)O)c12)C(C)C` [Compound B, 4-3-(2-(diisopropylamino)ethyl)-1H-indol-4-yl dihydrogen phosphate] here?
A: 5HT2A agonism

Q: For `CC(C)N(CCc1c[nH]c2cccc(OC(=O)CC(=O)O)c12)C(C)C` [Compound D, 3-((3-(2-(diisopropylamino)ethyl)-1H-indol-4-yl)oxy)-3-oxopropanoic acid], which “conversion by human saliva” value [1] is on record?
A: completely hydrolyzed

Q: Which results are given for `CCCN(CCC)CCc1c[nH]c2cccc(O[C@H]3O[C@H](CO)[C@@H](O)[C@H](O)[C@H]3O)c12` (stereo in doubt) [Hydrolyzed Compound A-6, 2-((3-(2-(dipropylamino)ethyl)-1H-indol-4-yl)oxy)-6-(hydroxymethyl)tetrahydro-2H-pyran-3,4,5-triol]?
A: EC50 [3]: 214 nM; Emax % 5-HT (± SEM) [3]: 84.2 ± 1.0 % 5-HT; EC50 [4]: 1.65 nM; Emax % 5-HT (± SEM) [4]: 103.2 ± 1.0 % 5-HT

Q: What does the source list for `CC(C)N(CCc1c[nH]c2cccc(O[C@H]3O[C@H](CO)[C@@H](O)[C@H](O)[C@H]3O)c12)C(C)C` (stereo in doubt) [Hydrolyzed Compound A-7, 2-((3-(2-(diisopropylamino)ethyl)-1H-indol-4-yl)oxy)-6-(hydroxymethyl)tetrahydro-2H-pyran-3,4,5-triol]?
A: EC50 [3]: 1550 nM; Emax % 5-HT (± SEM) [3]: 94.4 ± 1.2 % 5-HT; EC50 [4]: 6.81 nM; Emax % 5-HT (± SEM) [4]: 103 ± 1.2 % 5-HT

Q: What does the source list for `CCCN(CC)CCc1c[nH]c2cccc(O[C@H]3O[C@H](CO)[C@@H](O)[C@H](O)[C@H]3O)c12` [Hydrolyzed Compound A-5, 2-((3-(2-(ethyl(propyl)amino)ethyl)-1H1-indol-4-yl)oxy)-6-(hydroxymethyl)tetrahydro-2H-pyran-3,4,5-triol]?
A: EC50 [3]: 117 nM; Emax % 5-HT (± SEM) [3]: 89.4 ± 2.6 % 5-HT; EC50 [4]: 3.16 nM; Emax % 5-HT (± SEM) [4]: 99.4 ± 1.2 % 5-HT

Q: With `CCCN(CCC)CCc1c[nH]c2cccc(OP(=O)(O)O)c12` [Compound A, 4-3-(2-(dipropylamino)ethyl)-1H-indol-4-yl dihydrogen phosphate] as the molecule, how does the “functional agonism of 5HT2A receptor, peak calcium flux response (FIG. 5)” value [2] read?
A: 5HT2A agonism

Q: With `CCN(CC)CCc1c[nH]c2cccc(O[C@H]3O[C@H](CO)[C@@H](O)[C@H](O)[C@H]3O)c12` (stereo in doubt) [Hydrolyzed Compound A-4, 2-((3-(2-(diethylamino)ethyl)-1H-indol-4-yl)oxy)-6-(hydroxymethyl)tetrahydro-2H-pyran-3,4,5-triol] as the molecule, how does the EC50 [3] read?
A: 258 nM

Q: And the “Emax % 5-HT (± SEM)” value [3]?
A: 80.1 ± 1.9 % 5-HT

Q: What about the EC50 [4] of the same molecule?
A: 6.48 nM

Q: What about the “Emax % 5-HT (± SEM)” value [4] of the same molecule?
A: 100.1 ± 1.1 % 5-HT

Q: For `CN(CCc1c[nH]c2cccc(O[C@H]3O[C@H](CO)[C@@H](O)[C@H](O)[C@H]3O)c12)C1CC1` (stereo in doubt) [Hydrolyzed Compound A-9, 2-((3-(2-(cyclopropyl(methyl)amino)ethyl)-1H-indol-4-yl)oxy)-6-(hydroxymethyl)tetrahydro-2H-pyran-3,4,5-triol], which EC50 [3] is on record?
A: 149 nM

Q: What about the “Emax % 5-HT (± SEM)” value [3] of the same molecule?
A: 79.1 ± 6.1 % 5-HT

Q: What about the EC50 [4] of the same molecule?
A: 5.1 nM

Q: And the “Emax % 5-HT (± SEM)” value [4]?
A: 99.4 ± 2.0 % 5-HT

Q: With `CCN(C)CCc1c[nH]c2cccc(O[C@H]3O[C@H](CO)[C@@H](O)[C@H](O)[C@H]3O)c12` (stereo in doubt) [Hydrolyzed Compound A-1, 2-((3-(2-(ethyl(methyl)amino)ethyl)-1H-indol-4-yl)oxy)-6-(hydroxymethyl)tetrahydro-2H-pyran-3,4,5-triol] as the molecule, how does the EC50 [3] read?
A: 30.1 nM

Q: What about the “Emax % 5-HT (± SEM)” value [3] of the same molecule?
A: 89.9 ± 2.1 % 5-HT

Q: What about the EC50 [4] of the same molecule?
A: 4.01 nM

Q: And the “Emax % 5-HT (± SEM)” value [4]?
A: 96.7 ± 1.1 % 5-HT

Q: Which “conversion by human saliva” value [1] does the source give for `CC(=O)CC(=O)Oc1cccc2[nH]cc(CCN(C(C)C)C(C)C)c12` [Compound E, 3-(2-(diisopropylamino)ethyl)-1H-indol-4-yl 3-oxobutanoate] here?
A: completely hydrolyzed

Q: Which results are given for `CCCN(C)CCc1c[nH]c2cccc(O[C@H]3O[C@H](CO)[C@@H](O)[C@H](O)[C@H]3O)c12` (stereo in doubt) [Hydrolyzed Compound A-2, 2-(hydroxymethyl)-6-((3-(2-(methyl(propyl)amino)ethyl)-1H-indol-4-yl)oxy)tetrahydro-2H-pyran-3,4,5-triol]?
A: EC50 [3]: 47.8 nM; Emax % 5-HT (± SEM) [3]: 90.7 ± 1.5 % 5-HT; EC50 [4]: 3.83 nM; Emax % 5-HT (± SEM) [4]: 98.0 ± 1.1 % 5-HT

Q: With `C=CCN(C)CCc1c[nH]c2cccc(O[C@H]3O[C@H](CO)[C@@H](O)[C@H](O)[C@H]3O)c12` (stereo in doubt) [Hydrolyzed Compound A-8, 2-((3-(2-(allyl(methyl)amino)ethyl)-1H-indol-4-yl)oxy)-6-(hydroxymethyl)tetrahydro-2H-pyran-3,4,5-triol] as the molecule, how does the EC50 [3] read?
A: 49.2 nM

Q: And the “Emax % 5-HT (± SEM)” value [3]?
A: 81.5 ± 2.4 % 5-HT

Q: What about the EC50 [4] of the same molecule?
A: 3.66 nM

Q: What about the “Emax % 5-HT (± SEM)” value [4] of the same molecule?
A: 102 ± 1.0 % 5-HT
